# PubChem BioAssay (NCI)
#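 Test compounds were applied to cells in 96-well plates for 48 hours at 5 doses. GI50: concentration for 50% inhibition of growth. Definition used: TGI = concentration required for complete inhibition of growth.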
# Legend:
# Assay in all cases: NCI anticancer screen, dose series, 48 h
# [1] = test system: DU-145 prostate
# [2] = test system: UACC-62 melanoma
# [3] = test system: HT29 colon
# [4] = test system: OVCAR-8 ovarian
# [5] = test system: SF-539 CNS
# [6] = test system: SR leukemia
# [7] = test system: NCI-H460 lung
# [8] = test system: BT-549 breast
# [9] = test system: U251 CNS
# [10] = test system: A498 renal
# [11] = test system: HL-60(TB) leukemia
# [12] = test system: SNB-75 CNS
# [13] = test system: ACHN renal
# [14] = test system: PC-3 prostate
# [15] = test system: IGROV1 ovarian
# [16] = test system: NCI-H23 lung
# [17] = test system: SF-268 CNS
# [18] = test system: RPMI-8226 leukemia
# [19] = test system: MDA-MB-435
# [20] = test system: HCC-2998 colon
# [21] = test system: SK-MEL-28 melanoma
# [22] = test system: OVCAR-5 ovarian
# [23] = test system: KM12 colon
# [24] = test system: SK-MEL-2 melanoma
# [25] = test system: HOP-62 NSCLC
# [26] = test system: HCT-15 colon
# [27] = test system: HS 578T breast
# [28] = test system: OVCAR-4 ovarian
# [29] = test system: A549 NSCLC
# [30] = test system: SW-620 colon
# [31] = test system: MDA-MB-231 breast
# [32] = test system: SF-295 CNS
# [33] = test system: UACC-257 melanoma
# [34] = test system: UO-31 renal
# [35] = test system: 786-0 renal
# [36] = test system: LOX IMVI melanoma
# [37] = test system: K-562 leukemia
# [38] = test system: NCI-H226 lung
# [39] = test system: SNB-19 CNS
# [40] = test system: OVCAR-3 ovarian
# [41] = test system: SN12C renal
# [42] = test system: COLO 205 colon
# [43] = test system: SK-MEL-5 melanoma
# [44] = test system: MCF7 breast
# [45] = test system: CCRF-CEM leukemia
# [46] = test system: T-47D breast
# [47] = test system: MALME-3M melanoma
# [48] = test system: TK-10 renal
# [49] = test system: EKVX NSCLC
# [50] = test system: HOP-92 NSCLC
# [51] = test system: NCI-H522 lung
# [52] = test system: RXF 393 renal
# [53] = test system: MOLT-4 leukemia
# [54] = test system: NCI/ADR-RES ovarian
# [55] = test system: SK-OV-3 ovarian
# [56] = test system: HCT-116 colon
# [57] = test system: M14 melanoma
smiles,measurement,setting,value
CC1=C[C@H]2O[C@@H]3C[C@H]4OC(=O)/C=C\C=C\[C@H]([C@@H](C)O)OCC/C(C)=C/C(=O)OC[C@@]2(CC1)[C@]4(C)[C@]31CO1,GI50,[1],4.11 nM
same,TGI,[1],13.9 nM
same,GI50,[2],6.99 nM
same,TGI,[2],23.5 nM
same,GI50,[3],4.26 nM
same,TGI,[3],18.8 nM
same,GI50,[4],9.15 nM
same,TGI,[4],45.3 nM
same,GI50,[5],3.65 nM
same,TGI,[5],11.5 nM
same,GI50,[6],4.05 nM
same,TGI,[6],11.1 nM
same,GI50,[7],2.46 nM
same,TGI,[7],6.92 nM
same,GI50,[8],3.87 nM
same,TGI,[8],10.8 nM
same,GI50,[9],4.43 nM
same,TGI,[9],26.4 nM
same,GI50,[10],5.33 nM
same,TGI,[10],14.1 nM
same,GI50,[11],2.39 nM
same,TGI,[11],6.84 nM
same,GI50,[12],8.15 nM
same,TGI,[12],24.7 nM
same,GI50,[13],8.52 nM
same,TGI,[13],65 nM
same,GI50,[14],6.63 nM
same,TGI,[14],116 nM
same,GI50,[15],4.4 nM
same,TGI,[15],41.7 nM
same,GI50,[16],6.14 nM
same,TGI,[16],27 nM
same,GI50,[17],10.6 nM
same,TGI,[17],41.1 nM
same,GI50,[18],3.82 nM
same,TGI,[18],10.4 nM
same,GI50,[19],7.94 nM
same,TGI,[19],31.9 nM
same,GI50,[20],3.47 nM
same,TGI,[20],12.1 nM
same,GI50,[21],5.3 nM
same,TGI,[21],22.5 nM
same,GI50,[22],12 nM
same,TGI,[22],67.9 nM
same,GI50,[23],6.25 nM
same,TGI,[23],132 nM
same,GI50,[24],12.4 nM
same,TGI,[24],42.9 nM
same,GI50,[25],6.42 nM
same,TGI,[25],26.3 nM
same,GI50,[26],3.71 nM
same,TGI,[26],23.6 nM
same,GI50,[27],7.34 nM
same,TGI,[27],29.8 nM
same,GI50,[28],7.24 nM
same,TGI,[28],69.9 nM
same,GI50,[29],5.26 nM
same,TGI,[29],32.9 nM
same,GI50,[30],8.1 nM
same,TGI,[30],49.1 nM
same,GI50,[31],17.4 nM
same,TGI,[31],77.5 nM
same,GI50,[32],8.91 nM
same,TGI,[32],34.9 nM
same,GI50,[33],11.2 nM
same,TGI,[33],37.9 nM
same,GI50,[34],5.43 nM
same,TGI,[34],33.5 nM
same,GI50,[35],3.93 nM
same,TGI,[35],24.9 nM
same,GI50,[36],2.77 nM
same,TGI,[36],10.6 nM
same,GI50,[37],2.92 nM
same,TGI,[37],14300 nM
same,GI50,[38],3.23 nM
same,TGI,[38],17.7 nM
same,GI50,[39],4.14 nM
same,TGI,[39],26.1 nM
same,GI50,[40],4.4 nM
same,TGI,[40],34 nM
same,GI50,[41],12 nM
same,TGI,[41],74.2 nM
same,GI50,[42],7.33 nM
same,TGI,[42],18.9 nM
same,GI50,[43],2.58 nM
same,TGI,[43],7.77 nM
same,GI50,[44],2.76 nM
same,TGI,[44],18.9 nM
same,GI50,[45],4.25 nM
same,TGI,[45],14300 nM
same,GI50,[46],8.31 nM
same,TGI,[46],28.8 nM
same,GI50,[47],3.23 nM
same,TGI,[47],11.2 nM
same,GI50,[48],9.23 nM
same,TGI,[48],39.5 nM
same,GI50,[49],7.64 nM
same,TGI,[49],52.4 nM
same,GI50,[50],11.6 nM
same,TGI,[50],84.3 nM
same,GI50,[51],2.63 nM
same,TGI,[51],10.6 nM
same,GI50,[52],4.37 nM
same,TGI,[52],18.6 nM
same,GI50,[53],2.38 nM
same,TGI,[53],469 nM
same,GI50,[54],10.8 nM
same,TGI,[54],98.9 nM
same,GI50,[55],6.89 nM
same,TGI,[55],27.9 nM
same,GI50,[56],2.37 nM
same,TGI,[56],8.21 nM
same,GI50,[57],2.78 nM
same,TGI,[57],6.22 nM
